Square brackets hold non-standard residues; d marks the D form. Peptide text beside a SMILES is read from it. NMeA = CN[C@@H](C)C(=O)O
Legend:
[1] = system: OK-1; assay: Compound was evaluated for the intrinsic activity for accumulation of cyclic AMP in OK-1 cells.; type: functional, opossum
[2] = system: UMR106-06; assay: Compound was evaluated for the intrinsic activity for accumulation of cyclic AMP in UMR10606 (rat osteosarcoma) cells.; type: functional
[3] = system: OK-1; assay: Displacement of [125I]-chick PTHrP-(1-36)-NH2 from opossum (OK-1) kidney cells; type: functional
[4] = system: OK-1; assay: Compound was evaluated for the accumulation of cyclic AMP in OK-1 cells.; type: functional, cell-based, opossum
[5] = system: SAOS-2; assay: Compound was evaluated for the intrinsic activity for accumulation of cyclic AMP in SaOS-2 (human osteosarcoma) cells.; type: functional
[6] = system: SAOS-2; assay: Compound was evaluated for the accumulation of cyclic AMP in SaOS-2 (human osteosarcoma) cells.; type: functional, cell-based
[7] = system: UMR106-06; assay: Compound was evaluated for the accumulation of cyclic AMP in UMR10606 (rat osteosarcoma) cells.; type: functional, cell-based
[8] = system: OK-1; assay: Accumulation of cyclic AMP in OK-1 cells.; type: functional, cell-based, opossum

EC50 [4]	EC50 ([6]; Homo sapiens, SAOS-2)	EC50 ([7]; Rattus norvegicus, UMR106-06)	EC50 ([8]; opossum, OK-1)	EC50 ([7]; umr106-06)	EC50 ([6]; saos-2)	EC50 ([8]; ok-1)	SMILES	Intrinsic activity [1]	Intrinsic activity [2]	pKD [3]	Intrinsic activity [5]
4.2 nM	2.3 nM	3.3 nM					CC[C@H](C)[C@H](NC(=O)[C@H](CCC(=O)O)NC(=O)[C@H](CO)NC(=O)[C@@H](NC(=O)[C@@H](N)CO)C(C)C)C(=O)N[C@@H](CCC(N)=O)C(=O)N[C@@H](CC(C)C)C(=O)N[C@@H](CCSC)C(=O)N[C@@H](Cc1c[nH]cn1)C(=O)N[C@@H](CC(N)=O)C(=O)N[C@@H](CC(C)C)C(=O)NCC(=O)N[C@@H](CCCCN)C(=O)N[C@@H](Cc1c[nH]cn1)C(=O)N[C@@H](CC(C)C)C(=O)N[C@@H](CC(N)=O)C(=O)N[C@@H](CO)C(=O)N[C@@H](CCSC)C(=O)N[C@@H](CCC(=O)O)C(=O)N[C@@H](CCCN=C(N)N)C(=O)N[C@H](C(=O)N[C@@H](CCC(=O)O)C(=O)N[C@@H](Cc1c[nH]c2ccccc12)C(=O)N[C@@H](CC(C)C)C(=O)N[C@@H](CCCN=C(N)N)C(=O)N[C@@H](CCCCN)C(=O)N[C@@H](CCCCN)C(=O)N[C@@H](CC(C)C)C(=O)N[C@@H](CCC(N)=O)C(=O)N[C@@H](CC(=O)O)C(=O)N[C@H](C(=O)N[C@@H](Cc1c[nH]cn1)C(=O)N[C@@H](CC(N)=O)C(=O)N[C@@H](Cc1ccccc1)C(=O)N[C@H](C(=O)N[C@@H](C)C(N)=O)C(C)C)C(C)C)C(C)C	1	0.98	8.6	0.96
	1.6 nM	2.6 nM	7.4 nM				CC[C@H](C)[C@H](NC(=O)[C@H](CCC(=O)O)NC(=O)[C@H](CO)NC(=O)[C@@H](NC(=O)[C@H](C)NC)C(C)C)C(=O)N[C@@H](CCC(N)=O)C(=O)N[C@@H](CC(C)C)C(=O)N[C@@H](CCSC)C(=O)N[C@@H](Cc1c[nH]cn1)C(=O)N[C@@H](CC(N)=O)C(=O)N[C@@H](CC(C)C)C(=O)NCC(=O)N[C@@H](CCCCN)C(=O)N[C@@H](Cc1c[nH]cn1)C(=O)N[C@@H](CC(C)C)C(=O)N[C@@H](CC(N)=O)C(=O)N[C@@H](CO)C(=O)N[C@@H](CCSC)C(=O)N[C@@H](CCC(=O)O)C(=O)N[C@@H](CCCN=C(N)N)C(=O)N[C@H](C(=O)N[C@@H](CCC(=O)O)C(=O)N[C@@H](Cc1c[nH]c2ccccc12)C(=O)N[C@@H](CC(C)C)C(=O)N[C@@H](CCCN=C(N)N)C(=O)N[C@@H](CCCCN)C(=O)N[C@@H](CCCCN)C(=O)N[C@@H](CC(C)C)C(=O)N[C@@H](CCC(N)=O)C(=O)N[C@@H](CC(=O)O)C(=O)N[C@H](C(=O)N[C@@H](Cc1c[nH]cn1)C(=O)N[C@@H](CC(N)=O)C(=O)N[C@@H](Cc1ccccc1)C(=O)N[C@H](C(=O)N[C@@H](C)C(N)=O)C(C)C)C(C)C)C(C)C (H-[NMeA]VSEIQLMHNLGKHLNSMERVEWLRKKLQDVHNFVA-NH2)	0.9	1	8.5	1
	2.4 nM		7 nM	1 nM			CC[C@H](C)[C@H](NC(=O)[C@H](CCC(=O)O)NC(=O)[C@H](CO)NC(=O)[C@@H](NC(=O)[C@H](C)N)C(C)C)C(=O)N[C@@H](CCC(N)=O)C(=O)N[C@@H](CC(C)C)C(=O)N[C@@H](CCSC)C(=O)N[C@@H](Cc1c[nH]cn1)C(=O)N[C@@H](CC(N)=O)C(=O)N[C@@H](CC(C)C)C(=O)NCC(=O)N[C@@H](CCCCN)C(=O)N[C@@H](Cc1c[nH]cn1)C(=O)N[C@@H](CC(C)C)C(=O)N[C@@H](CC(N)=O)C(=O)N[C@@H](CO)C(=O)N[C@@H](CCSC)C(=O)N[C@@H](CCC(=O)O)C(=O)N[C@@H](CCCN=C(N)N)C(=O)N[C@H](C(=O)N[C@@H](CCC(=O)O)C(=O)N[C@@H](Cc1c[nH]c2ccccc12)C(=O)N[C@@H](CC(C)C)C(=O)N[C@@H](CCCN=C(N)N)C(=O)N[C@@H](CCCCN)C(=O)N[C@@H](CCCCN)C(=O)N[C@@H](CC(C)C)C(=O)N[C@@H](CCC(N)=O)C(=O)N[C@@H](CC(=O)O)C(=O)N[C@H](C(=O)N[C@@H](Cc1c[nH]cn1)C(=O)N[C@@H](CC(N)=O)C(=O)N[C@@H](Cc1ccccc1)C(=O)N[C@H](C(=O)N[C@@H](C)C(N)=O)C(C)C)C(C)C)C(C)C (stereo in doubt; form 2)	1	0.95	8.1	1
				3.3 nM	3 nM	5.9 nM	CC[C@H](C)[C@H](NC(=O)[C@H](CCC(=O)O)NC(=O)[C@H](CO)NC(=O)[C@@H](NC(=O)[C@H](C)N)C(C)C)C(=O)N[C@@H](CCC(N)=O)C(=O)N[C@@H](CC(C)C)C(=O)N[C@@H](CCSC)C(=O)N[C@@H](Cc1c[nH]cn1)C(=O)N[C@@H](CC(N)=O)C(=O)N[C@@H](CC(C)C)C(=O)NCC(=O)N[C@@H](CCCCN)C(=O)N[C@@H](Cc1c[nH]cn1)C(=O)N[C@@H](CC(C)C)C(=O)N[C@@H](CC(N)=O)C(=O)N[C@@H](CO)C(=O)N[C@@H](CCSC)C(=O)N[C@@H](CCC(=O)O)C(=O)N[C@@H](CCCN=C(N)N)C(=O)N[C@H](C(=O)N[C@@H](CCC(=O)O)C(=O)N[C@@H](Cc1c[nH]c2ccccc12)C(=O)N[C@@H](CC(C)C)C(=O)N[C@@H](CCCN=C(N)N)C(=O)N[C@@H](CCCCN)C(=O)N[C@@H](CCCCN)C(=O)N[C@@H](CC(C)C)C(=O)N[C@@H](CCC(N)=O)C(=O)N[C@@H](CC(=O)O)C(=O)N[C@H](C(=O)N[C@@H](Cc1c[nH]cn1)C(=O)N[C@@H](CC(N)=O)C(=O)N[C@@H](Cc1ccccc1)C(=O)N[C@H](C(=O)N[C@@H](C)C(N)=O)C(C)C)C(C)C)C(C)C (stereo in doubt; form 1)	1	1	8.4	0.95

From ChEMBL document CHEMBL1159136, “Dipeptide mimetics can substitute for the receptor activation domain resulting in highly potent analogues of hPTH(136)” (Bioorg Med Chem Lett, 1996)
